Consider four compounds from US20190298796A1, “Therapeutic Compositions from the Brevinin-1 Family of Peptides and Uses Thereof” (priority 2016, published 2019).

For orientation: MIC means the lowest concentration that inhibits growth of the organism.

For one series, the system named is Vibrio cholerae MCV09. It counts as cell-based. Particulars: NA = not active up to the highest concentration tested.
The test system of a further series is VRE ATCC 29212. The settings on record: lowest concentration killing entire bacteria, 24 hrs.
For series [1], the system named is Bacillus subtilis MTCC 14416. The series is classed as cell-based. Particulars: lowest concentration killing entire bacteria, 24 hrs.
Description: (§2) Antimicrobial activity: Broth dilution method [39] was used to assess the antimicrobial activity of the peptides. Bacterial strains used for in vitro antibacterial assay were Staphylococcus aureus (MTCC 9542), Bacillus subtilis (MTCC 14416), Bacillus coagulans (ATCC 7050), Methicillin-resistant Staphylococcus aureus (MRSA) (ATCC 43300), Streptococcus mutans (MTCC 497), Streptococcus gordonii (MTCC 2695), Vibrio cholerae (MCV09), Escherichia coli (ATCC 25922), Vancomycin-resistant enterococcus (VRE) (ATCC 29212) and gram-negative fish pathogens Aeromonas hydrophila (ATCC 7966) and Aeromonas sobria (ATCC 43979). Bacterial cultures were grown in Muller Hinton broth (MHB) (Hi-media) by overnight incubation at 37° C. with constant shaking. Microbial cultures having 10^6 CFU/ml were made from OD600: 0.6 cultures. 400 μM stock solutions of peptides were prepared in autoclaved double distilled water and diluted in MHB to make concentrations ranging from 0.7 to 100 μM. Bacterial inoculum without peptide was used as the negative control.
For series [2], the system named is V. cholerae cells (MCV09). Nature of the series: Atomic Force Microscopy of surface morphology. Particulars: MIC, 15 min. The series is classed as cell-based, Vibrio cholerae. How it is done: Visualizing the changes in surface morphology of bacteria: Atomic Force Microscopy. This was incorporated to get more insights into the mechanism of action of the peptides and to confirm the results obtained from SEM. V. cholerae cells (MCV09) were grown in MHB at 37° C., washed, and suspended in sodium phosphate buffer (10 mM, pH: 7.4) (OD600-0.06). Diluted bacteria were incubated with the MICs of B1/1 CONH2 and B1/2 CONH2 for 15 min. The control sample was prepared without the peptides. Samples were prepared by drop casting 20 μL of a solution on the freshly cleaved mica surface and dried under air. AFM analyses were carried out on Multimode SPM (Veeco Nanoscope V). Imaging was done under ambient conditions in tapping mode. The probe used for imaging was antimony doped silicon cantilever with a resonant frequency of 300 kHz and a spring constant of 40 Nm^−1.

For series [3], the system named is Streptococcus gordonii MTCC 2695. It counts as cell-based. The settings on record: NA = not active up to the highest concentration tested.
Description: as §2
Series [4] relates to Aeromonas hydrophilia ATCC 7966. The series is classed as cell-based, Aeromonas hydrophila. The settings on record: Aeromonas hydrophilia ATCC 7966 (fish pathogen); NA = not active up to the highest concentration tested.
Description: as §2
For another series, the system named is V. cholerae (MCV09). Nature of the series: SYTOX green uptake, confocal imaging of membrane permeation. It counts as cell-based, Vibrio cholerae. The settings on record: MIC concentration, 10 min, CLSM. On the procedure: (§1) Imaging the bacterial membrane permeation by the amidated peptides. In order to find out the membrane damage by the peptides, if any, we used SYTOX green uptake assay. MIC concentrations of B1/1 CONH2 and B1/2 CONH2 were prepared in sodium phosphate buffer (10 mM, pH: 7.4). Overnight cultures of S. aureus (MTCC 9542) and V. cholerae (MCV09) were re-inoculated in fresh MHB to attain an OD600-0.6. The bacterial suspension was centrifuged (3000×g) for 5 min and the pellet was washed twice with the sodium phosphate buffer (10 mM, pH: 7.4). The pellet was resuspended in the same buffer to an OD600-0.06. Diluted culture was incubated with the peptides for 10 min at 37° C. 100 μl suspensions were poured on to poly-L-lysine coated glass slides and incubated at 37° c. for 30 minutes. The glass slides were washed twice in the same buffer to remove unattached cells. After washing 50 μl of DAPI (10 μg/ml) was smeared on the glass slide and incubated for 30 minutes at 37° C. The slides were washed twice with the buffer and SYTOX green (0.1 μM) was smeared and incubated for 15 minutes at room temperature, washed twice and dried. A drop of glycerol was placed on the slides, mounted with a cover slip and sealed. Controls were run in the presence of peptide solvents. The slides were subjected to confocal laser scanning microscopy (CLSM).

The subject of series [5] is Streptococcus mutans MTCC 497. The series is classed as cell-based. The settings on record: NA = not active up to the highest concentration tested.
Description: as §2
A further series concerns S. aureus (MTCC 9542). Put plainly: SYTOX green uptake, confocal imaging of membrane permeation. The settings on record: MIC concentration, 10 min, CLSM. It counts as cell-based, Staphylococcus aureus. How it is done: as §1
For series [6], the system named is Aeromonas sobria ATCC 43979. The series is classed as cell-based. The settings on record: Aeromonas sobria ATCC 43979 (fish pathogen); NA = not active up to the highest concentration tested.
Description: as §2
A further series deals with MRSA ATCC 43300. The series is classed as cell-based, Methicillin-resistant Staphylococcus aureus. Particulars: lowest concentration killing entire bacteria, 24 hrs.
Another series relates to human erythrocytes. It counts as cell-based. Particulars: 60 min. On the procedure: Hemolytic Activity: Hemolytic assay was carried out as previously described. Briefly, 10% (v/v) suspensions of fresh human erythrocytes in phosphate buffered saline (pH 7.2) were incubated with different concentrations (100 μM-0.7 μM) of B1/1 COOH & B1/2 COOH, B1/1 CONH2 & B1/2 CONH2 and cyclic B1/1 CONH2 & cyclic B1/2 CONH2 and incubated at 3^7° C. for 60 min. The cells were centrifuged (3000×g) for 5 min, and absorbance of the supernatant was measured at 595 nm. Hemolysis caused by 10% Triton X-100 was taken as positive control. Percentage hemolysis was calculated by measuring the mean amount of hemoglobin released as a result of lysis of erythrocyte from three independent experiments.

Series [7] deals with Bacillus coagulans ATCC 7050. The series is classed as cell-based. Particulars: lowest concentration killing entire bacteria, 24 hrs.
Description: as §2
For series [8], the system named is Staphylococcus aureus MTCC 9542. The series is classed as cell-based. Particulars: lowest peptide concentration required to kill entire bacteria, 24 hrs, NA = not active up to the highest concentration tested.
Description: as §2
A further series deals with E .coli. ATCC 25922. It counts as cell-based, Escherichia coli.
[9] abbreviates: at the peptide's MIC for Aeromonas sobria ATCC 43979 (MIC in parenthesis).
[10] abbreviates: at the peptide's MIC for Staphylococcus aureus MTCC 9542 (MIC in parenthesis).
Setting [11] is: at the peptide's MIC for Vibrio cholerae MCV09 (MIC in parenthesis).

Values after ≈ are worked out from the molar mass of the structure shown. Like-named read-outs stand apart in the source and are kept apart here. Positions of bridges follow the written chain, without caps; N, C: chain ends. Residues, ends and D or L forms follow the SMILES beside them.

Description for E .coli. ATCC 25922: as §2
Description for MRSA ATCC 43300: as §2
Description for VRE ATCC 29212: as §2
Description for Vibrio cholerae MCV09: as §2

Consider `CC[C@H](C)[C@H](NC(=O)CNC(=O)[C@@H]1CCCN1C(=O)[C@H](Cc1ccccc1)NC(=O)[C@@H](N)Cc1ccccc1)C(=O)N[C@H](C(=O)N[C@@H](CCCCN)C(=O)N[C@H](C(=O)N[C@@H](C)C(=O)N[C@@H](CO)C(=O)N[C@@H](C)C(=O)N[C@H](C(=O)N[C@@H](CC(C)C)C(=O)N1CCC[C@H]1C(=O)N[C@H](C(=O)N[C@@H](C)C(=O)N[C@H](C(=O)N[C@@H](CS)C(=O)N[C@@H](C)C(=O)N[C@H](C(=O)N[C@H](C(=O)N[C@@H](CCCCN)C(=O)N[C@@H](CCCNC(=N)N)C(=O)N[C@@H](CS)C(N)=O)[C@@H](C)O)[C@@H](C)CC)[C@@H](C)CC)[C@@H](C)O)[C@@H](C)CC)C(C)C)[C@@H](C)CC` [B1/1 CONH2] (H-FFPGIIKVASAILPTAICAITKRC-NH2; N-terminus assumed), for which the minimal inhibitory concentration (MIC) came to 10.3 µM (≈ 26.1 µg/mL) against Vibrio cholerae MCV09; 25 µM (≈ 63.3 µg/mL) in the series with VRE ATCC 29212; 36.3 µM (≈ 92 µg/mL) in series [1]; 19 µM (≈ 48.1 µg/mL) in [3]; 100 µM (≈ 253 µg/mL) in series [4]; 36 µM (≈ 91.2 µg/mL) in series [5]. Besides, the MIC was 12.5 µM (≈ 31.7 µg/mL) in series [6]; 2.5 µM (≈ 6.33 µg/mL) with MRSA ATCC 43300; 8.2 µM (≈ 20.8 µg/mL) in series [7]; 1.5 µM (≈ 3.8 µg/mL) in [8]; 29 µM (≈ 73.5 µg/mL) in the series with E .coli. ATCC 25922. The “Changes in surface morphology (AFM)” value in series [2] was “changes in surface morphology and aggregation”. In addition, the “SYTOX green fluorescence signal (membrane permeabilization)” value with V. cholerae (MCV09) and in the series on S. aureus (MTCC 9542) was “marked increase in fluorescence signal” throughout. For the same compound, the “Percentage hemolysis at MIC” value was determined as 25% in the series with human erythrocytes (setting [9]), 10% with human erythrocytes (setting [10]) and 20% in the series with human erythrocytes (setting [11]).
Regarding `CC[C@H](C)[C@H](NC(=O)CNC(=O)[C@@H]1CCCN1C(=O)[C@H](Cc1ccccc1)NC(=O)[C@@H](N)Cc1ccccc1)C(=O)N[C@H](C(=O)N[C@@H](CCCCN)C(=O)N[C@H](C(=O)N[C@@H](C)C(=O)NCC(=O)N[C@@H](C)C(=O)N[C@H](C(=O)N[C@@H](CC(C)C)C(=O)N1CCC[C@H]1C(=O)N[C@H](C(=O)N[C@@H](C)C(=O)N[C@H](C(=O)N[C@@H](CS)C(=O)N[C@@H](C)C(=O)N[C@H](C(=O)N[C@H](C(=O)N[C@@H](CCCCN)C(=O)N[C@@H](CCCNC(=N)N)C(=O)N[C@@H](CS)C(N)=O)[C@@H](C)O)[C@@H](C)CC)[C@@H](C)CC)[C@@H](C)O)[C@@H](C)CC)C(C)C)[C@@H](C)CC` [B1/2 CONH2] (H-FFPGIIKVAGAILPTAICAITKRC-NH2; N-terminus assumed), the MIC turned out to be 12 µM (≈ 30 µg/mL) in the series with Vibrio cholerae MCV09; 25 µM (≈ 62.6 µg/mL) against VRE ATCC 29212; 30 µM (≈ 75.1 µg/mL) in series [1]; 25 µM (≈ 62.6 µg/mL) in [3]; 100 µM (≈ 250 µg/mL) in [4]; 40 µM (≈ 100 µg/mL) in series [5]. Moreover, the minimum inhibitory concentration (MIC) is 12.5 µM (≈ 31.3 µg/mL) in series [6]; 5 µM (≈ 12.5 µg/mL) in the series with MRSA ATCC 43300; 12.5 µM (≈ 31.3 µg/mL) in series [7]; 2.5 µM (≈ 6.26 µg/mL) in [8]; 36.2 µM (≈ 90.6 µg/mL) against E .coli. ATCC 25922. For the same compound, in series [2], the “Changes in surface morphology (AFM)” value was “changes in surface morphology and aggregation”. The “SYTOX green fluorescence signal (membrane permeabilization)” value in the series on V. cholerae (MCV09) and with S. aureus (MTCC 9542) was “marked increase in fluorescence signal” in each case. Further, the entries for the “Percentage hemolysis at MIC” value in the series on human erythrocytes (setting [9]), with human erythrocytes (setting [10]) and in the series on human erythrocytes (setting [11]) were 25%, 8% and 25%, respectively.
Consider `CC[C@H](C)[C@H](NC(=O)CNC(=O)[C@@H]1CCCN1C(=O)[C@H](Cc1ccccc1)NC(=O)[C@@H](N)Cc1ccccc1)C(=O)N[C@H](C(=O)N[C@@H](CCCCN)C(=O)N[C@H](C(=O)N[C@@H](C)C(=O)N[C@@H](CO)C(=O)N[C@@H](C)C(=O)N[C@H](C(=O)N[C@@H](CC(C)C)C(=O)N1CCC[C@H]1C(=O)N[C@H](C(=O)N[C@@H](C)C(=O)N[C@H](C(=O)N[C@H]1CSSC[C@@H](C(N)=O)NC(=O)[C@H](CCCNC(=N)N)NC(=O)[C@H](CCCCN)NC(=O)[C@H]([C@@H](C)O)NC(=O)[C@H]([C@@H](C)CC)NC(=O)[C@H](C)NC1=O)[C@@H](C)CC)[C@@H](C)O)[C@@H](C)CC)C(C)C)[C@@H](C)CC` [Cyclic B1/1 CONH2] (H-FFPGIIKVASAILPTAICAITKRC-NH2; disulfide 18-24; N-terminus assumed), for which the MIC with Vibrio cholerae MCV09 was 12.5 µM (≈ 31.6 µg/mL); against VRE ATCC 29212, 25 µM (≈ 63.3 µg/mL); in series [1], 45 µM (≈ 114 µg/mL); in series [3], 25 µM (≈ 63.3 µg/mL); in series [4], 100 µM (≈ 253 µg/mL); in series [5], 40 µM (≈ 101 µg/mL). The MIC in series [6] stood at 3 µM (≈ 7.59 µg/mL); against MRSA ATCC 43300 it was 5 µM (≈ 12.7 µg/mL); in series [7], 25 µM (≈ 63.3 µg/mL); in [8] it was 3 µM (≈ 7.59 µg/mL); in the series on E .coli. ATCC 25922 it was 50 µM (≈ 127 µg/mL). In addition, the “Percentage hemolysis at MIC” value came to 10% with human erythrocytes (setting [9]), 11% with human erythrocytes (setting [10]) and 20% with human erythrocytes (setting [11]).
As for `CC[C@H](C)[C@H](NC(=O)CNC(=O)[C@@H]1CCCN1C(=O)[C@H](Cc1ccccc1)NC(=O)[C@@H](N)Cc1ccccc1)C(=O)N[C@H](C(=O)N[C@@H](CCCCN)C(=O)N[C@H](C(=O)N[C@@H](C)C(=O)NCC(=O)N[C@@H](C)C(=O)N[C@H](C(=O)N[C@@H](CC(C)C)C(=O)N1CCC[C@H]1C(=O)N[C@H](C(=O)N[C@@H](C)C(=O)N[C@H](C(=O)N[C@H]1CSSC[C@@H](C(N)=O)NC(=O)[C@H](CCCNC(=N)N)NC(=O)[C@H](CCCCN)NC(=O)[C@H]([C@@H](C)O)NC(=O)[C@H]([C@@H](C)CC)NC(=O)[C@H](C)NC1=O)[C@@H](C)CC)[C@@H](C)O)[C@@H](C)CC)C(C)C)[C@@H](C)CC` [Cyclic B1/2 CONH2] (H-FFPGIIKVAGAILPTAICAITKRC-NH2; disulfide 18-24; N-terminus assumed), the minimal inhibitory concentration (MIC) was determined as 12.5 µM (≈ 31.3 µg/mL) against Vibrio cholerae MCV09; 30 µM (≈ 75 µg/mL) against VRE ATCC 29212; 35 µM (≈ 87.5 µg/mL) in series [1]; 25 µM (≈ 62.5 µg/mL) in series [3]; 50 µM (≈ 125 µg/mL) in series [4]; 40 µM (≈ 100 µg/mL) in series [5]. Moreover, the MIC in [6] turned out to be 3 µM (≈ 7.5 µg/mL); with MRSA ATCC 43300, 7 µM (≈ 17.5 µg/mL); in series [7], 29 µM (≈ 72.5 µg/mL); in [8] it was 3 µM (≈ 7.5 µg/mL); in the series with E .coli. ATCC 25922 it was 50 µM (≈ 125 µg/mL). The figures for the “Percentage hemolysis at MIC” value in the series with human erythrocytes (setting [9]), with human erythrocytes (setting [10]) and with human erythrocytes (setting [11]) were 12%, 15% and 25%, respectively.
